13 compounds from PubChem BioAssay (NCI) can be followed below.

Some test systems named below: HCC-2998 colon; MCF7 breast; SF-268 CNS; NCI/ADR-RES ovarian; MOLT-4 leukemia; NCI-H226 lung; SF-295 CNS; TK-10 renal; HCT-15 colon; HOP-62 NSCLC.
Common to all, as to assay: NCI-60 cell line screen, 48 h

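Five concentrations, 48 hours, 96-well plates. Definition used: TGI = concentration required for complete inhibition of growth.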

Turning to `CC1(C)CCC[C@]2(C)[C@@H]1CC[C@@]13O[C@@H]1C1=C(CO)C(=O)O[C@]14O[C@@H]4[C@@H]23`, the TGI with HCC-2998 colon is 40.5 µM; in the experiment on MCF7 breast, over 63.9 µM; with SF-268 CNS, 29.6 µM; in the experiment on NCI/ADR-RES ovarian, 39.1 µM; in the experiment with MOLT-4 leukemia, over 100 µM; in the experiment with NCI-H226 lung, 42.1 µM. The TGI turned out to be 32.3 µM in the experiment on SF-295 CNS, 38 µM with TK-10 renal, 37.4 µM in the experiment with HCT-15 colon and 34.6 µM in the experiment with HOP-62 NSCLC.

With `COc1cc2c(cc1OCCCC(=O)Nc1cc(C(=O)Nc3cc(C(=O)Nc4cc(C(=O)NCCCN(C)C)n(C)c4)n(C)c3)n(C)c1)N=C[C@@H]1CCCN1C2=O`, the TGI in the experiment on HCC-2998 colon is 28.2 µM; in the experiment with MCF7 breast, 7.25 µM; in the experiment with SF-268 CNS it was 3.31 µM; with NCI/ADR-RES ovarian, 6.21 µM; in the experiment with MOLT-4 leukemia, over 100 µM; in the experiment with NCI-H226 lung, 37.9 µM. Also, the TGI with SF-295 CNS is 26.4 µM; in the experiment with TK-10 renal, 3.49 µM; in the experiment with HCT-15 colon, 3.86 µM; in the experiment on HOP-62 NSCLC, 9.83 µM.

For the compound `CC1(C)O[C@H](C(=O)O)[C@@H](C(=O)O)O1`, the TGI in the experiment on HCC-2998 colon, with MCF7 breast, in the experiment on SF-268 CNS, in the experiment with NCI/ADR-RES ovarian, with MOLT-4 leukemia and in the experiment with NCI-H226 lung was over 100 µM in each case. In addition, the TGI in the experiment on SF-295 CNS, in the experiment on TK-10 renal, with HCT-15 colon and in the experiment on HOP-62 NSCLC was over 100 µM each time.

For the compound `c1ccc2c(c1)c1c(n2CCOCCN2CCCCC2)CCCC1`, the TGI in the experiment on HCC-2998 colon came out at 23.6 µM; in the experiment with MCF7 breast, 27.6 µM; with SF-268 CNS it was 37.7 µM; in the experiment with NCI/ADR-RES ovarian it was 23.4 µM; in the experiment on MOLT-4 leukemia, 26.7 µM; with NCI-H226 lung, 38.5 µM. The TGI in the experiment on SF-295 CNS worked out at 29.7 µM; in the experiment with TK-10 renal it was 27.3 µM; with HCT-15 colon, 27.7 µM; with HOP-62 NSCLC, 29 µM.

Consider `O=c1c2ccccc2oc2c1ccc1ncccc12`, for which the TGI in the experiment with HCC-2998 colon was over 100 µM; in the experiment with MCF7 breast, 27.8 µM; in the experiment with SF-268 CNS, 78.2 µM; in the experiment with NCI/ADR-RES ovarian it was 36.3 µM; with MOLT-4 leukemia it was over 100 µM; with NCI-H226 lung, 38.9 µM. The TGI with SF-295 CNS was 45.9 µM; in the experiment on TK-10 renal, 32.6 µM; in the experiment on HCT-15 colon it was over 100 µM; in the experiment with HOP-62 NSCLC, 78.1 µM.

For `CCCCC/C=C1/CC(CO)(COC(=O)CC(C(C)C)C(C)C)OC1=O` (stereo not given), the TGI was 35.2 µM in the experiment on HCC-2998 colon; 31.8 µM with MCF7 breast; 30.3 µM with SF-268 CNS; 38.9 µM in the experiment on NCI/ADR-RES ovarian; 26.2 µM in the experiment on MOLT-4 leukemia; 24.9 µM in the experiment with NCI-H226 lung. The TGI with SF-295 CNS came to 19.5 µM; with TK-10 renal, 32.5 µM; in the experiment with HCT-15 colon it was 33.6 µM; in the experiment with HOP-62 NSCLC it was 20.7 µM.

On to `CCOC(=O)c1c(SC(=O)c2cc(OC)c(OC)c(OC)c2)n(-c2ccccc2)c(=S)n(-c2ccccc2)c1=O`, for which the TGI with HCC-2998 colon, in the experiment on MCF7 breast, in the experiment on SF-268 CNS, with NCI/ADR-RES ovarian, in the experiment on MOLT-4 leukemia and in the experiment on NCI-H226 lung was over 100 µM in each case. The TGI with SF-295 CNS, in the experiment with TK-10 renal, in the experiment with HCT-15 colon and in the experiment on HOP-62 NSCLC was over 100 µM throughout.

As to `CC(C)OC(=O)c1ccc(NCC2=CC(=O)C=CC2=O)cc1Cl`, the TGI was 32.8 µM in the experiment with HCC-2998 colon; over 60.1 µM in the experiment with MCF7 breast; 35.2 µM with SF-268 CNS; over 100 µM in the experiment on NCI/ADR-RES ovarian; over 30.7 µM in the experiment with MOLT-4 leukemia; over 62.6 µM in the experiment on NCI-H226 lung. Moreover, the TGI in the experiment with SF-295 CNS was 41.4 µM; with TK-10 renal it was 30 µM; with HCT-15 colon it was 18.6 µM; in the experiment with HOP-62 NSCLC, over 100 µM.

For the compound `COc1ccc2c(c1)OCC1(O)Cc3ccccc3OC21` (stereo not given), the TGI with HCC-2998 colon, with MCF7 breast, with SF-268 CNS, with NCI/ADR-RES ovarian, with MOLT-4 leukemia and with NCI-H226 lung was over 100 µM in each case. For the same compound, the TGI in the experiment on SF-295 CNS, in the experiment with TK-10 renal, in the experiment with HCT-15 colon and with HOP-62 NSCLC was over 100 µM each time.

As to `N/C(=N\N=C\c1ccc2c(c1)OCO2)NO`, the TGI is over 100 µM in the experiment on HCC-2998 colon; over 100 µM with MCF7 breast; 75.4 µM in the experiment with SF-268 CNS; 23.1 µM in the experiment on NCI/ADR-RES ovarian; 77.5 µM in the experiment on MOLT-4 leukemia; 40.8 µM with NCI-H226 lung. Further, the TGI was over 100 µM in the experiment on SF-295 CNS, over 100 µM with TK-10 renal, over 100 µM in the experiment with HCT-15 colon and 66.7 µM with HOP-62 NSCLC.

With `Oc1ccc2c(c1)-c1c(c3cc(O)ccc3n1CCN1CCOCC1)CC2`, the TGI in the experiment on HCC-2998 colon was 32.6 µM; in the experiment on MCF7 breast it was 57.8 µM; in the experiment on SF-268 CNS, over 100 µM; in the experiment on NCI/ADR-RES ovarian it was 73.9 µM; with MOLT-4 leukemia, 60.4 µM; in the experiment with NCI-H226 lung, 41.4 µM. Also, the TGI was 47.2 µM in the experiment with SF-295 CNS, over 100 µM with TK-10 renal, 45.4 µM in the experiment with HCT-15 colon and 72.7 µM in the experiment on HOP-62 NSCLC.

`COCn1c2ccc(OC(C)=O)cc2c2c(=O)oc(C)nc21`: the TGI with HCC-2998 colon, with MCF7 breast, with SF-268 CNS, in the experiment on NCI/ADR-RES ovarian, in the experiment on MOLT-4 leukemia and in the experiment with NCI-H226 lung was over 100 µM each time. Further, the TGI with SF-295 CNS, in the experiment on TK-10 renal, in the experiment with HCT-15 colon and with HOP-62 NSCLC was over 100 µM in each case.

On to `COc1ccc(-c2oc3ccc(C)cc3c(=O)c2O)cc1`, for which the TGI with HCC-2998 colon, in the experiment on MCF7 breast, in the experiment with SF-268 CNS, in the experiment on NCI/ADR-RES ovarian, with MOLT-4 leukemia and in the experiment on NCI-H226 lung was over 100 µM each time. The TGI in the experiment with SF-295 CNS, in the experiment with TK-10 renal, with HCT-15 colon and in the experiment with HOP-62 NSCLC was over 100 µM throughout.
